Experimental data taken from patent US20220072131A1, “Dihydroxyphenyl Neurotransmitter Compounds, Compositions And Methods” (Auspex Pharmaceuticals, Inc., priority 2013, published 2022).

Columns and labels:
anesthetized rats = assay: Change of mean arterial blood pressure in anesthetized rats following intravenous administration; format: in vivo, rat; details: 2 mg/kg, in comparison to the same dose of L-threo-DOPS
Description: Change of Mean Arterial Blood Pressure in Anesthetized Rats Following Intravenous Administration of 2 mg/kg L-Threo-2,3-Dideutero POPS in Comparison to the Same Dose of L-Threo-DOPS

[1] = biological target: T1, monoamine oxidase-A (MAO-A) (Homo sapiens, UniProt P21397); assay: In vitro monoamine oxidase A degradation assay; format: in vitro ADME; details: incubated with MAO-A; compared to non-deuterated norepinephrine; disappearance of norepinephrine tracked
T1 sequence (P21397 1-527): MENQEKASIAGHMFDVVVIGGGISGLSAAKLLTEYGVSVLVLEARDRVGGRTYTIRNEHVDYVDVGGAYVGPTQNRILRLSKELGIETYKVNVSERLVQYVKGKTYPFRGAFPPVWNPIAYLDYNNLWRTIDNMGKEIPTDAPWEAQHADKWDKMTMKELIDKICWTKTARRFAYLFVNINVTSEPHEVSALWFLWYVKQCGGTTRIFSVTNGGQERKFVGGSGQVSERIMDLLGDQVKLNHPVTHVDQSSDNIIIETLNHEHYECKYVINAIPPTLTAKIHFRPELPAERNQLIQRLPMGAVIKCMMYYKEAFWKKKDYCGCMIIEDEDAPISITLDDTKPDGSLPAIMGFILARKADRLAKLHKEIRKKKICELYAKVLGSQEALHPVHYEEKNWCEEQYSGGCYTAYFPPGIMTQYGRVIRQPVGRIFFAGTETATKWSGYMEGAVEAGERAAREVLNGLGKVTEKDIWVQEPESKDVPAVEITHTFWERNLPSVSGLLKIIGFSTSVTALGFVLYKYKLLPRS
Description: Norepinephrine and d6-norepinephrine were incubated with monoamine oxidase-A (MAO-A).
The appearance of 3,4-dihydroxyphenylglycolaldehyde and the disappearance of norepinephrine were tracked. Compared to non-deuterated norepinephrine, d6-norepinephrine was associated with about a 5-fold decrease in digestion by MAO-A and about a 75% decrease in 3,4-dihydroxyphenylglycolaldehyde production.
The assay method is a batch alumina extraction followed by liquid chromatography with electrochemical detection. The post-column electrodes are arranged in series, with an oxidizing potential at the first electrode and reducing potential at the third. This series arrangement of flow-through electrodes reduces the solvent front substantially and improves the sensitivity and specificity for detecting reversibly oxidized species such as catechols. 3,4-Dihydroxyphenylglycolaldehyde is identified by a broad, short peak within the solvent front.

## [2H]C(N)(C(=O)O)C([2H])(O)c1ccc(O)c(O)c1 [L-threo-2,3-dideutero DOPS]
Anesthetized rats
  Change of mean arterial blood pressure: enhanced and prolonged increase

## [2H]c1c([2H])c([C@@]([2H])(O)C([2H])([2H])N)c([2H])c(O)c1O [d6-norepinephrine]
[1]
  decrease in digestion by MAO-A: ~5 fold
